Read-outs that look alike come from different tables or passages of the source.

This note sets out measurements from patent publication US20160009725A1, “PYRROLO- AND PYRAZOLO-TRIAZOLODIAZEPINES AS BET-PROTEIN INHIBITORS FOR TREATING HYPERPROLIFERATIVE DISEASES” (BAYER PHARMA AKTIENGESELLSCHAFT, priority 2013, published 2016).

For one experiment, the system named is LAPC-4 cells. As to the kind of experiment: Cell proliferation assay (alamarBlue), LAPC-4. The format is cell-based. The settings on record: Homo sapiens, LAPC4, prostate cancer, 1 nM methyltrienolone, 168 hours incubation. The procedure: (§1) In accordance with the invention, the ability of the substances to inhibit cell proliferation was determined Cell viability was determined by means of the alamarBlue® reagent (Invitrogen) in a Victor ×3 Multilabel Reader (Perkin Elmer). The excitation wavelength was 530 nm and the emission wavelength […].
The LAPC-4 cells (ATCC, PTA-1441TM) were sown at a concentration of 4000 cells/well in 100 μl of growth medium (RPMI1640, 2 mM L-glutamine, 10% cFCS) on 96-well microtitre plates. One day later, the LAPC-4 cells were treated with 1 nM methyltrienolone and various substance dilutions.
(§2) After overnight incubation at 37° C., the fluorescence values (CI values) were determined. Then the plates were treated with various substance dilutions (1E-5 M, 3E-6 M, 1E-6 M, 3E-7 M, 1E-7 M, 3E-8 M, 1E-8 M) and incubated at 37° C. over 96 (MOLM-13, B16F10, MDA-MB-431 cells), 120 (MOLP-8 cells) or 168 (LAPC-4 cells) hours. Subsequently, the fluorescence values were determined (CO values). For the data analysis, the CI values were subtracted from the CO values and the results were compared between cells which had been treated with various dilutions of the substance or only with buffer solution. The IC50 values (substance concentration needed for 50% inhibition of cell proliferation) were calculated therefrom.
(§3) The substances were tested in the cell lines in Table 1, which represent the indications specified by way of example: […]
Background: The colour change of resazurin is a common sign of viable cells or microbes.

In a further experiment the target is T1, BRD4 (BD1) (Homo sapiens, UniProt O60885).
T1 construct: N-terminally His6-tagged BRD4 (BD1) (amino acids 67-152, longer constructs also being possible, preferably amino acids 44-168); made in house; host or cells: E. coli
Briefly: Binding assay BRD4/acetylated peptide H4 (TR-FRET protein-protein interaction assay). The text has this:
To assess the BRD4 binding strength of the substances described in this application, the ability thereof to inhibit the interaction between BRD4 (BD1) and acetylated histone H4 in a dose-dependent manner was quantified. For this purpose, a time-resolved fluorescence resonance energy transfer (TR-FRET) assay was used, which measures the binding between N-terminally His6-tagged BRD4 (BD1) (amino acids 67-152, longer constructs also being possible, preferably amino acids 44-168) and a synthetic acetylated histone H4 (Ac-H4) peptide with sequence […]-biotin. The recombinant BRD4 protein produced in-house according to Filippakopoulos et al., Nature, 2010, 468:1119-1123 was expressed in E. coli and purified by means of (Ni-NTA) affinity and (Sephadex G-75) size exclusion chromatography. The Ac-H4 peptide can be purchased, for example, from Biosyntan (Berlin, Germany). […] For this purpose, 100-fold concentrated solutions in DMSO were prepared by serial dilutions (1:3.4) of a 2 mM stock solution into a clear, 384-well microtitre plate (Greiner Bio-One, Frickenhausen, Germany). From this, 50 nl were transferred into a black test plate (Greiner Bio-One, Frickenhausen, Germany). […] This was followed by a 10-minute incubation step at 22° C. for the pre-equilibration of putative complexes between BRD4 and the substances. […] The mixture was then incubated in the dark at 22° C. for one hour and then at 4° C. for at least 3 hours and for no longer than overnight. The formation of BRD4/Ac-H4 complexes was determined by the measurement of the resonance energy transfer from the streptavidin-Eu cryptate to the anti-6His-XL665 antibody present in the reaction. For this purpose, the fluorescence emission was measured at 620 nm and 665 nm after excitation at 330-350 nm in a TR-FRET measuring instrument, for example a Rubystar or Pherastar (both from BMG Lab Technologies, Offenburg, Germany) or a Viewlux (Perkin-Elmer). The ratio of the emissions at 665 nm and at […] was taken as an indicator of the amount of BRD4/Ac-H4 complexes formed. The data (ratios) obtained were normalized, with 0% inhibition corresponding to the mean from the measurements for a set of controls (typically 32 data points) in which all the reagents were present. In these, in place of test substances, 50 nl of DMSO (100%) were used Inhibition of 100% corresponded to the mean from the measurements for a set of controls (typically 32 data points) in which all the reagents except BRD4 were present. The IC50 was determined by regression analysis based on a 4-parameter equation (minimum, maximum, IC50, Hill; […])).
In general terms: In TR-FRET formats the signal depends on donor and acceptor labels being close together.

The subject of another experiment is B16F10 cells. Briefly: Cell proliferation assay (alamarBlue), B16F10. The format is cell-based. The settings on record: Mus musculus, B16-F10, melanoma (BRAF wild-type), 96 hours incubation. The method, then:
as §1
The B16F10 cells (ATCC, CRL-6475) were sown at a concentration of 300-500 cells/well in 100 μl of growth medium (DMEM with phenol red, 10% FCS) on 96-well microtitre plates.
as §2, §3

For the next experiment, the system named is MOLM-13 cells. As to the kind of experiment: Cell proliferation assay (alamarBlue), MOLM-13. The format is cell-based. The settings on record: Homo sapiens, acute myeloid leukaemia, 96 hours incubation. The procedure:
as §1
The MOLM-13 cells (DSMZ, ACC 554) were sown at a concentration of 4000 cells/well in 100 μl of growth medium (RPMI1640, 10% FCS) on 96-well microtitre plates.
as §2, §3

For the next experiment, the system named is MDA-MB-231 cells. As to the kind of experiment: Cell proliferation assay (alamarBlue), MDA-MB-231. The conditions noted are these: Homo sapiens, mammary carcinoma, 96 hours incubation, read-out: Breast MDA-MB-231 IC50. In kind it is cell-based. The procedure:
as §1
The MDA-MB-231 cells (DSMZ, ACC 732) were sown at a concentration of 4000 cells/well in 100 μl of growth medium (DMEM/Ham's F12 medium, 10% FCS) on 96-well microtitre plates.
as §2, §3

The test system of the next experiment is MOLP-8 cells. Briefly: Cell proliferation assay (alamarBlue), MOLP-8. The format is cell-based. The conditions noted are these: Homo sapiens, multiple myeloma, 120 hours incubation. The procedure:
as §1
The MOLP-8 cells (DSMZ, ACC 569) were sown at a concentration of 4000 cells/well in 100 μl of growth medium (RPMI1640, 20% FCS) on 96-well microtitre plates.
as §2, §3

Setting [1] is: BRD4 (BD1) / acetylated histone H4 peptide, TR-FRET, read-out: IC50 (BRD4).

In the case of `Cc1c2c(cn1C)-n1c(C)nnc1[C@H](CC(=O)N1C3CCC1CC(=O)C3)N=C2c1ccc(Cl)cc1` (single isomer, unassigned; (-)) [Example 6], the IC50 – broadly, the concentration at which inhibition is half-maximal – was 520 nM in the experiment on LAPC-4 cells, 240 nM at BRD4 (BD1) (setting [1]), 890 nM in the experiment on B16F10 cells and 1240 nM in the experiment on MOLM-13 cells.

`Cc1c2c(cn1C)-n1c(C)nnc1[C@H](CC(=O)N1CC3CCC(C1)O3)N=C2c1ccc(Cl)cc1` (single isomer, unassigned; (-)) [Example 8]: the IC50 in the experiment on LAPC-4 cells turned out to be 540 nM; at BRD4 (BD1) (setting [1]), 190 nM; with MOLM-13 cells it was 750 nM.

In the case of `Cc1c2c(cn1C)-n1c(C)nnc1[C@H](CC(=O)N1CC3CCC(C3)C1)N=C2c1ccc(Cl)cc1` (single isomer, unassigned; (-)) [Example 10], the IC50 on BRD4 (BD1) (setting [1]) was 310 nM; in the experiment with MOLM-13 cells, 1460 nM.

Turning to `Cc1c2c(cn1C)-n1c(C)nnc1[C@H](CC(=O)N1CC3CCC1CC3)N=C2c1ccc(Cl)cc1` (single isomer, unassigned; (-)) [Example 14], the IC50 was 520 nM in the experiment with LAPC-4 cells, 100 nM at BRD4 (BD1) (setting [1]) and 690 nM in the experiment on MOLM-13 cells.

Take `Cc1c2c(cn1C)-n1c(C)nnc1[C@H](CC(=O)N1CC3CC1CO3)N=C2c1ccc(Cl)cc1` (stereo in doubt) [Example 7, (−)-2-[(4S)-6-(4-Chlorophenyl)-1,7,8-trimethyl-4,8-dihydropyrrolo[3,4-f][1,2,4]triazolo[4,3-a][1,4]diazepin-4-yl]-1-{(1S,4S)-2-oxa-5-azabicyclo[2.2.1]hept-5-yl}ethan-1-one]: the IC50 on BRD4 (BD1) (setting [1]) came out at 210 nM.

`Cc1c2c(cn1C)-n1c(C)nnc1[C@H](CC(=O)N1CC3(COC3)C1)N=C2c1ccc(Cl)cc1` [Example 1, (−)-2-[(4S)-6-(4-Chlorophenyl)-1,7,8-trimethyl-4,8-dihydropyrrolo[3,4-f][1,2,4]triazolo-[4,3-a][1,4]diazepin-4-yl]-1-(2-oxa-6-azaspiro[3.3]hept-6-yl)ethan-1-one]: the IC50 was found to be 680 nM in the experiment on LAPC-4 cells, 150 nM on BRD4 (BD1) (setting [1]), 1140 nM in the experiment on B16F10 cells and 710 nM with MOLM-13 cells.

Turning to `Cc1c2c(cn1C)-n1c(C)nnc1[C@H](CC(=O)N1CC3(COC3)C1)N=C2c1ccccc1` [Example 2, 2-(1,7,8-Trimethyl-6-phenyl-4,8-dihydropyrrolo[3,4-f][1,2,4]triazolo[4,3-a][1,4]diazepin-4-yl)-1-(2-oxa-6-azaspiro[3.3]hept-6-yl)ethan-1-one], the 50% inhibitory concentration (IC50) turned out to be 920 nM in the experiment with LAPC-4 cells, 140 nM at BRD4 (BD1) (setting [1]), 2010 nM in the experiment on B16F10 cells and 900 nM in the experiment with MOLM-13 cells.

As for `Cc1c2c(cn1C)-n1c(C)nnc1[C@H](CC(=O)N1CC3(CCS3(=O)=O)C1)N=C2c1ccc(Cl)cc1` [Example 3, (−)-2-[(4S)-6-(4-Chlorophenyl)-1,7,8-trimethyl-4,8-dihydropyrrolo[3,4-f][1,2,4]triazolo[4,3-a][1,4]diazepin-4-yl]-1-(1,1-dioxo-1λ^6-1-thia-6-azaspiro[3.3]hept-6-yl)ethan-1-one], the IC50 in the experiment on LAPC-4 cells stood at 110 nM; on BRD4 (BD1) it was 20 nM; in the experiment with B16F10 cells, 160 nM; in the experiment with MOLM-13 cells, 110 nM; in the experiment on MDA-MB-231 cells, 300 nM; with MOLP-8 cells, 140 nM.

With `Cc1nnc2n1-c1cn(C)nc1C(c1ccc(Cl)cc1)=N[C@H]2CC(=O)N1CC2(COC2)C1` [Example 4, 2-[(4S)-6-(4-Chlorophenyl)-1,8-dimethyl-4,8-dihydropyrazolo[3,4-f][1,2,4]triazolo[4,3-a][1,4]diazepin-4-yl]-1-(2-oxa-6-azaspiro[3.3]hept-6-yl)ethan-1-one], the IC50 at BRD4 (BD1) (setting [1]) was 460 nM.

`Cc1c2c(cn1C)-n1c(C)nnc1[C@H](CC(=O)N1CCOC3(CCCCC3)C1)N=C2c1ccc(Cl)cc1` [Example 9, (−)-2-[(4S)-6-(4-Chlorophenyl)-1,7,8-trimethyl-4,8-dihydropyrrolo[3,4-f][1,2,4]triazolo[4,3-a][1,4]diazepin-4-yl]-1-(1-oxa-4-azaspiro[5.5]undec-4-yl)ethanone]: the IC50 in the experiment with LAPC-4 cells is 1070 nM; on BRD4 (BD1) (setting [1]), 80 nM; in the experiment with MOLM-13 cells, 1050 nM.

As to `Cc1c2c(cn1C)-n1c(C)nnc1[C@H](CC(=O)N1CC3(CCOCC3)C1)N=C2c1ccc(Cl)cc1` [Example 11, (−)-2-[(4S)-6-(4-Chlorophenyl)-1,7,8-trimethyl-4,8-dihydropyrrolo[3,4-f][1,2,4]triazolo[4,3-a][1,4]diazepin-4-yl]-1-(7-oxa-2-azaspiro[3.5]non-2-yl)ethanone], the IC50 at BRD4 (BD1) (setting [1]) was 690 nM.

As for `Cc1c2c(cn1C)-n1c(C)nnc1[C@H](CC(=O)N1CCC3(CC1)COC3)N=C2c1ccc(Cl)cc1` [Example 12, (−)-2-[(4S)-6-(4-Chlorophenyl)-1,7,8-trimethyl-4,8-dihydropyrrolo[3,4-f][1,2,4]triazolo[4,3-a][1,4]diazepin-4-yl]-1-(2-oxa-7-azaspiro[3.5]non-7-yl)ethanone], the results for the IC50 on BRD4 (BD1) (setting [1]) and with MOLM-13 cells were 120 nM and 480 nM, respectively.

As for `Cc1c2c(cn1C)-n1c(C)nnc1[C@H](CC(=O)N1CCC3(COC3)C1)N=C2c1ccc(Cl)cc1` [Example 13, (−)-2-[(4S)-6-(4-Chlorophenyl)-1,7,8-trimethyl-4,8-dihydropyrrolo[3,4-f][1,2,4]triazolo[4,3-a][1,4]diazepin-4-yl]-1-(2-oxa-6-azaspiro[3.4]oct-6-yl)ethanone], the half-maximal inhibitory concentration (IC50) in the experiment on LAPC-4 cells amounted to 230 nM; at BRD4 (BD1) (setting [1]) it was 70 nM; in the experiment with MOLM-13 cells, 410 nM.

Regarding `Cc1nnc2n1-c1cn(C)nc1C(c1ccc(Cl)cc1)=N[C@H]2CC(=O)N1CC2(CCS2(=O)=O)C1` [Example 15, 2-[(4S)-6-(4-Chlorophenyl)-1,8-dimethyl-4,8-dihydropyrazolo[3,4-f][1,2,4]triazolo[4,3-a][1,4]diazepin-4-yl]-1-(1,1-dioxido-1-thia-6-azaspiro[3.3]hept-6-yl)ethanone], the values for the 50% inhibitory concentration (IC50) at BRD4 (BD1) (setting [1]) and in the experiment with MOLM-13 cells were 800 nM and 2700 nM, respectively.
